# Reference: patent publication US20230263786A1, “MODULATION OF DRUG-DRUG INTERACTIONS OF VADADUSTAT” (Akebia Therapeutics, Inc., priority 2020, published 2023)
# Read-outs that look alike come from different tables or passages of the source.
# Tests used:
# human PHD1 = human PHD1 (Homo sapiens, UniProt Q96KS0); experiment: PHD inhibitory action, PHD1; format: biochemical; details: in vitro
# CYP2B6 = biological target: T1, CYP2B6 (Homo sapiens, UniProt P20813); experiment: CYP2B6 inhibition in vitro; format: in vitro ADME
# T1 sequence (P20813 1-491): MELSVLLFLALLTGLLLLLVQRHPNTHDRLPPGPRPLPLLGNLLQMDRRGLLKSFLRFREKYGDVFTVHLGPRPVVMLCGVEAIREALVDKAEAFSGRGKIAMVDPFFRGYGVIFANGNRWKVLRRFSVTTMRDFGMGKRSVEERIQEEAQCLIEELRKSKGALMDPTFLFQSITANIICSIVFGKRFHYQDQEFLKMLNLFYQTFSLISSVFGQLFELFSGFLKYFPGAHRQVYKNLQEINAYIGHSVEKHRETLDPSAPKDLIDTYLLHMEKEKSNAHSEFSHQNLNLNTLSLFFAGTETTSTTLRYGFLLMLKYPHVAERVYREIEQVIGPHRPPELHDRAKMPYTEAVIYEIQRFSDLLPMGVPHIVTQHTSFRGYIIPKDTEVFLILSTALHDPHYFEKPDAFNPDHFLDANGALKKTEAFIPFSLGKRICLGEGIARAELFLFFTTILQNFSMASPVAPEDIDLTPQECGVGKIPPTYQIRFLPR
# UGT1A1 = biological target: T2, UGT1A1 (Homo sapiens, UniProt P22309); experiment: UGT1A1 inhibition in vitro; format: in vitro ADME
# T2 sequence (P22309 26-533): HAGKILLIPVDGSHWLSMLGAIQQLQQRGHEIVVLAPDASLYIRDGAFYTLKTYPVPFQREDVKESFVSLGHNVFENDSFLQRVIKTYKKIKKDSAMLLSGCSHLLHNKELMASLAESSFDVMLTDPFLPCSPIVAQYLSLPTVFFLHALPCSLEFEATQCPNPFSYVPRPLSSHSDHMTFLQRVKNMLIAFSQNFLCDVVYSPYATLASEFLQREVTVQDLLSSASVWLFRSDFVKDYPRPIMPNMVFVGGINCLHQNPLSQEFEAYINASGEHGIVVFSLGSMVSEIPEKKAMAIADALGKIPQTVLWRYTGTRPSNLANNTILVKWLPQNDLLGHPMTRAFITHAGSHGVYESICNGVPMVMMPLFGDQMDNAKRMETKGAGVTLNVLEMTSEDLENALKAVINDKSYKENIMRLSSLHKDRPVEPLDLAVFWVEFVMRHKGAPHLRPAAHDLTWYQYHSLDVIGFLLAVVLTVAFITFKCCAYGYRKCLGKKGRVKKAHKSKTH
# [1] = Phase 1 oral iron interaction study, Cohort 1 (after meal): sodium ferrous citrate, ferric citrate hydrate; format: in vivo, human; details: for AUC(0-inf) / AUC(0-t) / Cmax / half-life: male, human, plasma, oral; for AUC(0-inf): read-out: AUC(0-inf), LS geometric mean; for AUC(0-t): read-out: AUC(0-last), LS geometric mean; for Cmax: read-out: Cmax, LS geometric mean; for half-life: read-out: t1/2, LS geometric mean (converted)
# Text: The study included 3 periods as follow: • Screening: performed within 4 weeks before the day of administration of the study drug. • Evaluation period: Cohort 1 was confined to the study site for 10-night, 11-day. Cohort 2 and Cohort 3 were confined to the study site for 7 nights and 8 days. • Post-administration tests: performed 3 days after administration of the last dose of the study drug.
# In Cohort 1, 21 subjects were further randomized into 3 groups (7 subjects per group) and the evaluation period was divided into 3 periods during the study:
# (§1) Administration of vadadustat tablets alone: after fasting for at least 10 hours, subjects would eat breakfast over a period of 10 minutes, then immediately after finishing the meal (5 minutes after finishing the meal), 1 vadadustat tablet (150 mg) would be taken orally with 200 mL of water (extra water may be drunk if more is needed when taking the tablet, and the extra volume would be recorded). After breakfast, subjects would fast until the end of the collection of blood samples at 4 hours after administration of the study drug. Subjects would eat lunch over a period of 20 minutes after blood samples were collected at 4 hours after administration of the study drug. After lunch, subjects would fast until dinner, when they would eat dinner over a period of 20 minutes at 10 hours after administration of the study drug. Subjects would fast from dinner until breakfast the next morning.
# as §1, with “and sodium ferrous citrate:” for “alone:”, “mg) and 4 tablets of sodium ferrous citrate (containing 200 mg of iron)” for “mg)”, “tablets,” for “tablet,”
# Administration of vadadustat tablets and ferric citrate hydrate: after fasting for at least 10 hours, subjects would eat breakfast over a period of 10 minutes, then immediately after finishing the meal (5 minutes after finishing the meal), 1 vadadustat tablet (150 mg) and 8 tablets of ferric citrate hydrate (containing 2000 mg of ferric citrate) would be taken orally with 200 mL of water (extra water may be drunk if more is needed when taking the tablets, and the extra volume will be recorded). After breakfast, subjects would fast until the end of the collection of blood samples at 4 hours after administration of the study drug. After collection of blood samples at 4 hours after administration of the study drug, subjects would eat lunch over a period of 20 minutes, then immediately after finishing the meal, 8 tablets of ferric citrate hydrate (containing 2000 mg of ferric citrate) would be taken orally with 200 mL of water (extra water may be drunk if more is needed when taking the tablet, and the extra volume would be recorded). Subjects would fast from lunch to before dinner, and at 10 hours after administration of the study drug, subjects will eat dinner over a period of 20 minutes, then immediately after finishing the meal, 8 tablets of ferric citrate hydrate (containing 2000 mg of ferric citrate) would be taken orally with 200 mL of water (extra water may be drunk if more is needed when taking the tablets, and the extra volume would be recorded). Subjects would fast from dinner until breakfast the next morning.
# [2] = Phase I interaction study with statins and sulfasalazine: safety and tolerability; format: in vivo, human; details: taken alone or during treatment with rosuvastatin, pravastatin, atorvastatin, or simvastatin
# Experimental: The pharmacokinetic (pK) parameters and safety of said drugs administered alone and in combination with Compound 1 were characterized.
# Safety and Tolerability. Subject safety were evaluated throughout the study beginning on Day 1 (Baseline) until 30 days (±2 days) post last dose. The following safety assessments were performed: physical exam, 12-lead ECG (electrocardiogram), vital signs, clinical laboratory results, QuantiFERON®-TB Test, serology, and pregnancy. Adverse events (AE) were summarized.
# [3] = 150 mg with ferric citrate hydrate (2000 mg ferric citrate)
# [4] = 150 mg with sodium ferrous citrate (200 mg iron)
# [5] = 150 mg, Compound 1 150 mg alone
# human PHD1, sequence (Q96KS0 whole entry): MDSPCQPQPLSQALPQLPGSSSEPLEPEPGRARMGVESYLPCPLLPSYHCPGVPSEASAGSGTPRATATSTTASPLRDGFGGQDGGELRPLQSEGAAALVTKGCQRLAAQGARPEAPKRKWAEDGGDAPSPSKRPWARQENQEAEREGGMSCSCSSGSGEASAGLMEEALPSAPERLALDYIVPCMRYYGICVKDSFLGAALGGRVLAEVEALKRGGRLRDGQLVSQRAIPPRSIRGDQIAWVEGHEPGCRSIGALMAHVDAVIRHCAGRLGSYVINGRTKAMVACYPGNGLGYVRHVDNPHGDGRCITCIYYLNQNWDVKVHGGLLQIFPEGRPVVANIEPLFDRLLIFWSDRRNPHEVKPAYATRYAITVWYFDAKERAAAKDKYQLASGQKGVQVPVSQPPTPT
smiles,measurement,setting,value
"O=C(O)CNC(=O)c1ncc(-c2cccc(Cl)c2)cc1O [Compound 1, {[5-(3-chlorophenyl)-3-hydroxypyridine-2-carbonyl]amino}acetic acid]",IC50,human PHD1,15.4 nM
same,inhibitory effect on CYP2B6,CYP2B6,inhibitory effect
same,inhibitory effect on UGT1A1,UGT1A1,inhibitory effect
same,"Kel, LS geometric mean",[1]; [3],0.16 h⁻¹
same,"Kel, LS geometric mean",[1]; [4],0.13 h⁻¹
same,"Kel, LS geometric mean",[1]; Compound 1 150 mg alone,0.13 h⁻¹
same,AUC(0-inf),[1]; [3],32400 ng·h/mL
same,AUC(0-t),[1]; [3],31100 ng·h/mL
same,Cmax,[1]; [3],5180 ng/mL
same,half-life,[1]; [3],4.26 h
same,AUC(0-inf),[1]; [4],46600 ng·h/mL
same,AUC(0-t),[1]; [4],44400 ng·h/mL
same,Cmax,[1]; [4],6960 ng/mL
same,half-life,[1]; [4],5.34 h
same,AUC(0-inf),[1]; [5],104000 ng·h/mL
same,AUC(0-t),[1]; [5],99200 ng·h/mL
same,Cmax,[1]; [5],14300 ng/mL
same,half-life,[1]; [5],5.32 h
same,tolerability,[2],well tolerated
